The nature of data set [1]: Storage test over 30 days, NBPT loss on treated granulated urea (HPLC analysis). Format: physicochemical. Particulars: active compound applied to urea. The protocol: In a further storage test over 30 days at 30° C. and an atmospheric humidity of 60%, the NBPT losses measured (HPLC analysis) were as indicated below. At the beginning of the storage test, the NBPT was applied in a concentration of 0.12% by weight, based on the fertilizer, in a solution having the composition indicated below. The carrier fertilizer used was granulated urea.

Data set [2] relates to Chinese cabbage. Particulars: in vivo.

“And” between values parts separate entries of the source, which are not always exact repeats. Equal values may be shown once.

Take `CN1CCCC1=O` [N-methylpyrrolidone (NMP), N-methylpyrrolidone]: the “stabilizing action on the active compound” value in data set [1] is reported as “no stabilizing action”.

On to `NC(N)=O` [Urea], for which the “Fresh mass of shoots 21 days after planting” value in data set [2] was 14.3 g/pot and 20.05 g/pot and 11.65 g/pot.

(Values after patent US20110154874A1, “MIXTURE FOR THE TREATMENT OF UREA-CONTAINING FERTILIZERS” (FERTIVA GmbH, priority 2007, published 2011).)
